This is an account of results in US20050214738A1, “Conditional allele system” (priority 2003, published 2005).

In data set [1] the target is T1, GSK-3βFRB* (UniProt P26883+P42345, K2095P/T2098L/W2101F). Kind of data set: Inducible stabilization of GSK-3βFRB* in knock-in MEFs (Western blot). The arrangement: The minimal FRB domain comprises amino acids 2025-2114 of human mTor; endogenous in cells; host or cells: MEFs from GSK-3β^FRB* knock-in mice (fusion expressed from the targeted endogenous locus). The format is cell-based, mouse. The procedure: MEFs cell lines were prepared from E14.5-E16.5 embryos of indicated genotypes by eviscerating the embryos in HBSS, treating the remaining tissue with 0.2% collagenase and trypsin, and plating the cells in DMEM containing 10% FCS, antibiotics, and 0.1 mM β-mercaptoethanol. Once established, the MEFs were cultured using standard techniques and treated with various small molecules as indicated.
T1 sequence (P42345 2025-2114 K2095P/T2098L/W2101F): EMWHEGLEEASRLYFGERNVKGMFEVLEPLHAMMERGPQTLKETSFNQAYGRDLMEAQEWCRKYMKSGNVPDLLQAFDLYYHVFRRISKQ
T1 sequence (P26883 2-108): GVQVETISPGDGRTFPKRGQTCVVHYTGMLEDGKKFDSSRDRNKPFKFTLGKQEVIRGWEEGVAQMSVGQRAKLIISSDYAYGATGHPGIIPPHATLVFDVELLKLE
Western Blot analysis was carried out using cell lysates prepared in RIPA buffer (10 mM Tris pH 7.2, 150 mM NaCl, 0.1% SDS, 1% Triton X-100, 1% deoxycholate, 5 mM EDTA, protease inhibitor cocktail (Invitrogen Life Technologies)) and then separated using standard SDS/PAGE before being transferred to PVDF (Millipore) using standard Western blotting procedures. The anti-GSK-3β antibody, used at 1:2500, the anti-HSP-90 antibody, 1:2500, and the anti-FKBP12 antibody, 1:2500, were purchased from BD Transduction Labs. The anti-β-catenin antibody, 1:2000, and anti-HSP-70 antibody, 1:1000 were purchased from Santa Cruz Biotechnology. […] In all cases, Western blots were incubated overnight with the appropriate primary antibodies in TBST (10 mM Tris 8.0, 150 mM NaCl, 0.1% Tween-20) containing 10% dry milk, and then washed 3 times with TBST. The blots were subsequently incubated for 30 minutes with HRP-conjugated secondary antibodies from Jackson Immunoresearch, washed 3 more times with TBST, and then developed using standard ECL reagents (Amersham Biosciences) and Kodak XAR film.
A general note: In western blotting, separated proteins are transferred to a membrane and probed.

The target of the next data set is T2, KLF (Homo sapiens, UniProt P42345+P62942, T2098L/W2101F).
T2 construct: The minimal FRB domain comprises amino acids 2025-2114 of human mTor; expressed in transfected cells; host or cells: COS1 cells
T2 sequence (P42345 2025-2114 T2098L/W2101F): as the sequence (P42345 2025-2114 K2095P/T2098L/W2101F) above, with P71K counted along it
T2 sequence (P62942 whole entry, the tested form may be a part): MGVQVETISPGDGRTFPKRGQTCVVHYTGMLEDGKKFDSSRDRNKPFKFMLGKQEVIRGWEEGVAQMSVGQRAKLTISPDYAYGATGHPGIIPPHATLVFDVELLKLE
Kind of data set: SeAP transcriptional switch assay, FRB mutant KLF. The format is cell-based. The settings on record: double mutant. The procedure: Drug efficacy was determined in a three-plasmid transcriptional switch reporter assay. ˜106 COS1 cells were coelectroporated with 2 μg of the DNA binding construct pBJ5-Gal4-FKBP(3), 2 μg pBJ5-VP16 (or the relevant mutant FRB) and 2 μg of the Gal4-SeAP reporter. Electroporation details are available upon request. Cells were immediately aliquoted to 2 or 3×96 well plates with flat bottoms. After 24 hours incubation media was supplemented with a rapalog in triplicate and in serial two fold dilutions. Following 24 hours further incubation, cells with media were wrapped carefully in plastic wrap and heated to 65° C. for two hours to inactivate endogenous phosphatases. 50 μL of media was transferred to a black 96 well plate (Costar 3915) and supplemented with 1 mM methylumbelliferrylphosphate (Sigma, St. Louis, Mo.) in 1M diethanolamine (pH 10.0 with carbonate). After 16 hours incubation at 37° C. SeAP activity was measured by fluorescence with a Spectamax M2 fluorometer (Molecular Devices, Sunnyvale, Calif.) with transmission set at 355 nm and emmission set at 460 nm. Data was analysed with Softmax Pro (Molecular Devices), Microsoft Excel and Prism 3 (GraphPad Software).

Data set [2] has as its system T3, GSK-3βFRB* (K2095P/T2098L/W2101F).
T3 construct: The minimal FRB domain comprises amino acids 2025-2114 of human mTor; endogenous in cells; host or cells: lysates of MEFs from GSK-3β^FRB* knock-in mice; immunoprecipitated with anti-GSK-3β
The data set can be described thus: GSK-3β immunoprecipitation-kinase assay on MEF lysates. The format is biochemical, mouse. The following applies: treated versus untreated GSK-3βFRB*/FRB* MEFs.

The target of data set [3] is T4, GSK-3βFRB* (Homo sapiens, UniProt P42345+P62942, K2095P/T2098L/W2101F).
T4 construct: The minimal FRB domain comprises amino acids 2025-2114 of human mTor; endogenous in cells; host or cells: lysates of MEFs from GSK-3β^FRB* knock-in mice; immunoprecipitated with anti-GSK-3β
T4 sequence (P42345 2025-2114 K2095P/T2098L/W2101F): as the sequence (P42345 2025-2114 K2095P/T2098L/W2101F) above
T4 sequence (P62942 whole entry, the tested form may be a part): as the sequence (P62942 whole entry, the tested form may be a part) above
The data set is described as above. The format is biochemical, mouse. The settings on record: treated GSK-3βFRB*/FRB* cells.

The target in data set [4] is T1, GSK-3βFRB*. The data set can be described thus: Stabilization of GSK-3βFRB* in embryos of injected pregnant mice. The format is in vivo, mouse. The arrangement: The minimal FRB domain comprises amino acids 2025-2114 of human mTor; endogenous in cells; host or cells: MEFs from GSK-3β^FRB* knock-in mice (fusion expressed from the targeted endogenous locus). The following applies: 200 mg/kg/day IP to mother, embryos harvested at E11.5. The protocol:
GSK-3β^+/FRB* mice were intercrossed and the date of vaginal plug observation was set as E0.5. At E9.5, the stage of embryonic development was confirmed by ultrasonography (Chang, C. P. et al. “Sonographic Staging of the Developmental Status of Mouse Embryos in Utero.” (2003) Published in Genesis 36, 7-11) and mice were weighed. Drug administration commenced at E10.0. C20-MaRap was dissolved as a stock in N,N-dimethylacetamide (DMA) and was diluted into a delivery vehicle containing 10% Polyethylene glycol 400, 17% Polyoxyethylene sorbitan monooleate and 10% DMA to a final concentration of […]. 100 μL was immediately injected intraperitoneally (IP) to pregnant females with injections repeated twice more at 12 hour intervals to E11.5 when mice were sacrificed, and embryos and organs were dissected and frozen in […]. Tissues anterior to the embryonic forelimbs of individual embryos were used for preparation of protein extracts with the remainder used to determine the concentration of drug and for genotyping.

In a further data set the test system is embryos. Kind of data set: Overt effects on mother and embryos after IP injection of pregnant mice. The following applies: 200 mg/kg/day, 3 IP injections every 12 hours, E10.0 to E11.5. The format is in vivo, mouse. The procedure: GSK-3β^+/FRB* mice were intercrossed and the date of vaginal plug observation was set as E0.5. At E9.5, the stage of embryonic development was confirmed by ultrasonography (Chang, C. P. et al. “Sonographic Staging of the Developmental Status of Mouse Embryos in Utero.” (2003) Published in Genesis 36, 7-11) and mice were weighed. Drug administration commenced at E10.0. […] 100 μL was immediately injected intraperitoneally (IP) to pregnant females with injections repeated twice more at 12 hour intervals to E11.5 when mice were sacrificed, and embryos and organs were dissected and frozen in […]. Tissues anterior to the embryonic forelimbs of individual embryos were used for preparation of protein extracts with the remainder used to determine the concentration of drug and for genotyping.

T3 sequence (P42345 2025-2114 K2095P/T2098L/W2101F): as the sequence (P42345 2025-2114 K2095P/T2098L/W2101F) above
T3 sequence (P62942 whole entry, further chain, the tested form may be a part): as the sequence (P62942 whole entry, the tested form may be a part) above

“C20-(R or S)-methallylrapamycin [C20-MaRap]”: the “GSK-3βFRB* levels” value on GSK-3βFRB* [1] (GSK-3βFRB*/FRB* MEFs, 36 hour treatment, 100 nM) is recorded as “restored GSK-3βFRB* levels”. For the same substance, the “effect on wild-type GSK-3β, β-catenin, or HSP-90 expression” value at GSK-3βFRB* [1] (MEFs) was “neither drug had an effect”. Further, the “stabilization in fibroblasts lacking detectable FKBP12 expression” value on GSK-3βFRB* [1] (doubly homozygous GSK-3βFRB* and FKBP12IM, 100 nM 36 hours) is “complete loss of C20-MaRap-induced stabilization”. Also, on GSK-3βFRB* [1] (heterozygous MEFs, 100 nM), the “time of half maximal stabilization” value is 8 to 12 h and the “time to complete stabilization” value is recorded as “approximately 24 hours”. Also, a half-maximal effect on KLF (EC50) was put at 7.8 nM. In data set [2], the “increase in GSK-3β kinase activity” value was “over 7 fold”. Besides, the “kinase activity relative to wild-type cells” value at GSK-3βFRB* [3] was “approximately 60%”. The “GSK-3βFRB* protein levels in embryos” value at GSK-3βFRB* [4] is on record as “partially restored”. Moreover, the “overt effect on mother and embryos” value in the data set on embryos was “Neither the mother nor the embryos were overtly affected”.
